Experimental data published in ChEMBL document CHEMBL4385615, “Design and Synthesis of Type-IV Inhibitors of BRAF Kinase That Block Dimerization and Overcome Paradoxical MEK/ERK Activation” (J Med Chem, 2019).
Peptide text beside a SMILES is read from it.

What was measured:
[1] = target: T1, Serine/threonine-protein kinase B-raf (Homo sapiens, UniProt P15056); assay: Binding affinity to BRAF (unknown origin) by intrinsic tryptophan fluorescence assay
[2] = target: T1, Serine/threonine-protein kinase B-raf; assay: Inhibition of BRAF in NRAS Q61K mutant-driven human SBcl2 cells assessed as suppression of vemurafenib-induced phosphorylation of MEK expression at 300 uM administered via electroporation for 30 mins followed by vemurafenib addition and measured after 1 hr by Western blot analysis
[3] = target: T1, Serine/threonine-protein kinase B-raf; assay: Inhibition of BRAF in NRAS Q61K mutant-driven human SBcl2 cells assessed as suppression of vemurafenib-induced phosphorylation of MEK expression administered via electroporation for 30 mins followed by vemurafenib addition and measured after 1 hr by Western blot analysis
[4] = target: T1, Serine/threonine-protein kinase B-raf; assay: Inhibition of BRAF in NRAS Q61K mutant-driven human SBcl2 cells assessed as suppression of vemurafenib-induced phosphorylation of ERK expression at 300 uM administered via electroporation for 30 mins followed by vemurafenib addition and measured after 1 hr by Western blot analysis
[5] = target: T1, Serine/threonine-protein kinase B-raf; assay: Inhibition of BRAF in NRAS Q61K mutant-driven human SBcl2 cells assessed as suppression of vemurafenib-induced phosphorylation of ERK expression administered via electroporation for 30 mins followed by vemurafenib addition and measured after 1 hr by Western blot analysis
[6] = system: MCF-10A; assay: Antiproliferative activity against EGF-dependent human MCF10A cells assessed as inhibition of colony growth at 2 uM supplemented with fresh medium containing compound every 2 days for 11 days; type: functional
[7] = system: MCF-10A; assay: Antiproliferative activity against EGF-dependent human MCF10A cells assessed as inhibition of colony growth at 1.5 uM supplemented with fresh medium containing compound every 2 days for 11 days; type: functional

T1 sequence (P15056 whole entry): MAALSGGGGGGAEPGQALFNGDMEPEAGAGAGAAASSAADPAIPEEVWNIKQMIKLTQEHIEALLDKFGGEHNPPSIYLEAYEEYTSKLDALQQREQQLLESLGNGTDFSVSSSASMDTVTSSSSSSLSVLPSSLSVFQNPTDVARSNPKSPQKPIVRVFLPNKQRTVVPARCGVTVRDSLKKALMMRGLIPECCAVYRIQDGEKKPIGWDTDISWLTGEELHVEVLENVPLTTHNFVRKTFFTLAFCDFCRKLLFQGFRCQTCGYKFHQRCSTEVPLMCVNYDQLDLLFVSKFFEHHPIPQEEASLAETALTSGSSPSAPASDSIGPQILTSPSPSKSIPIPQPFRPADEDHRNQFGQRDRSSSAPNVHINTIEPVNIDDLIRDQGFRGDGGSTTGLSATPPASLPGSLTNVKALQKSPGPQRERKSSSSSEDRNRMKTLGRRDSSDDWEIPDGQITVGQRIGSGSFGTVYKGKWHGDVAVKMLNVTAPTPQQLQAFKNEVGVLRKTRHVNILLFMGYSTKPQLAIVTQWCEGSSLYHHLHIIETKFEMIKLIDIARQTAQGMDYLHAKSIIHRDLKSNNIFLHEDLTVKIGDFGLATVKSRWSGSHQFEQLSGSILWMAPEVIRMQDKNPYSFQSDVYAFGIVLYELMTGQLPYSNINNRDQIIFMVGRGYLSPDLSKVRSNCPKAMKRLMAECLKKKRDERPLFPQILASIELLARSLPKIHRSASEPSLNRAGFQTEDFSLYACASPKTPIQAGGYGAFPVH

CC[C@H](C)[C@H](NC(=O)[C@H](CC(N)=O)NC(=O)[C@H](C)NC(=O)[C@H](Cc1cnc[nH]1)NC(=O)[C@H](CCCNC(=N)N)NC(=O)[C@@H](NC(=O)[C@H](CCCCN)NC(=O)[C@H](CCCNC(=N)N)NC(=O)[C@H](CC(C)C)NC(=O)[C@@H](NC(=O)CN)C(C)C)[C@@H](C)O)C(=O)N[C@@H](CC(C)C)C(=O)N[C@@H](CC(C)C)C(=O)N[C@@H](Cc1ccccc1)C(=O)N[C@@H](CCSC)C(=O)NCC(=O)N[C@@H](Cc1ccc(O)cc1)C(=O)N[C@@H](CO)C(=O)N[C@H](C(=O)O)[C@@H](C)O
Kd ([1]; read-out: Kd): 4750 nM

CC[C@H](C)[C@H](NC(=O)[C@H](CC(N)=O)NC(=O)[C@@H](NC(=O)[C@H](Cc1cnc[nH]1)NC(=O)[C@H](CCCNC(=N)N)NC(=O)[C@@H](NC(=O)[C@H](CCCCN)NC(=O)[C@H](CCC(=O)O)NC(=O)[C@H](CC(C)C)NC(=O)[C@@H](NC(=O)CN)C(C)C)[C@@H](C)O)C(C)C)C(=O)N[C@@H](CC(C)C)C(=O)N[C@@H](CC(C)C)C(=O)N[C@@H](Cc1ccccc1)C(=O)N[C@@H](CCSC)C(=O)NCC(=O)N[C@@H](Cc1ccc(O)cc1)C(=O)N[C@@H](CO)C(=O)N[C@H](C(=O)O)[C@@H](C)O
Kd ([1]; read-out: Kd): 1090 nM

CC[C@H](C)[C@H](NC(=O)[C@H](CC(N)=O)NC(=O)[C@@H](NC(=O)[C@H](Cc1cnc[nH]1)NC(=O)[C@H](CCCNC(=N)N)NC(=O)[C@@H](NC(=O)[C@H](CCCCN)NC(=O)[C@H](CCCNC(=N)N)NC(=O)[C@H](CC(C)C)NC(=O)[C@@H](NC(=O)CN)C(C)C)[C@@H](C)O)C(C)C)C(=O)N[C@@H](CC(C)C)C(=O)N[C@@H](CC(C)C)C(=O)N[C@@H](Cc1ccccc1)C(=O)N[C@@H](CCSC)C(=O)NCC(=O)N[C@@H](Cc1ccc(O)cc1)C(=O)N[C@@H](CO)C(=O)N[C@H](C(=O)O)[C@@H](C)O
inhibition [2]: 100% | inhibition [3]: Dose-dependent effect | inhibition [4]: 100% | inhibition [5]: Dose-dependent effect | inhibition (INH) [6]: 100%

CC[C@H](C)[C@H](NC(=O)[C@H](CC(N)=O)NC(=O)[C@@H](NC(=O)[C@H](Cc1cnc[nH]1)NC(=O)[C@H](CCCNC(=N)N)NC(=O)[C@@H](NC(=O)[C@H](CCCCN)NC(=O)[C@H](CC(C)C)NC(=O)[C@H](CC(C)C)NC(=O)[C@@H](NC(=O)CN)C(C)C)[C@@H](C)O)C(C)C)C(=O)N[C@@H](CC(C)C)C(=O)N[C@@H](CC(C)C)C(=O)N[C@@H](Cc1ccccc1)C(=O)N[C@@H](CCSC)C(=O)NCC(=O)N[C@@H](Cc1ccc(O)cc1)C(=O)N[C@@H](CO)C(=O)N[C@H](C(=O)O)[C@@H](C)O
Kd ([1]; read-out: Kd): 540 nM

CC[C@H](C)[C@H](NC(=O)[C@H](CC(N)=O)NC(=O)[C@@H](NC(=O)[C@H](Cc1ccccc1)NC(=O)[C@H](CCCNC(=N)N)NC(=O)[C@@H](NC(=O)[C@H](CCCCN)NC(=O)[C@H](CCCNC(=N)N)NC(=O)[C@H](CC(C)C)NC(=O)[C@@H](NC(=O)CN)C(C)C)[C@@H](C)O)C(C)C)C(=O)N[C@@H](CC(C)C)C(=O)N[C@@H](CC(C)C)C(=O)N[C@@H](Cc1ccccc1)C(=O)N[C@@H](CCSC)C(=O)NCC(=O)N[C@@H](Cc1ccc(O)cc1)C(=O)N[C@@H](CO)C(=O)N[C@H](C(=O)O)[C@@H](C)O
Kd [1]: Not Active

CC[C@H](C)[C@H](NC(=O)[C@H](CC(N)=O)NC(=O)[C@@H](NC(=O)[C@H](Cc1cnc[nH]1)NC(=O)[C@H](CCCNC(=N)N)NC(=O)[C@@H](NC(=O)[C@H](CCCCN)NC(=O)[C@H](CCCNC(=N)N)NC(=O)[C@H](CC(C)C)NC(=O)[C@@H](N)C(C)C)[C@@H](C)O)C(C)C)C(=O)N[C@@H](CC(C)C)C(=O)N[C@@H](CC(C)C)C(=O)N[C@@H](Cc1ccccc1)C(=O)N[C@@H](CCSC)C(=O)NCC(=O)O
inhibition (INH) [7]: 100%

CC[C@H](C)[C@H](NC(=O)[C@H](CC(N)=O)NC(=O)[C@@H](NC(=O)[C@H](Cc1cnc[nH]1)NC(=O)[C@H](CCCNC(=N)N)NC(=O)[C@H](CC(=O)O)NC(=O)[C@H](CCCCN)NC(=O)[C@H](CCCNC(=N)N)NC(=O)[C@H](CC(C)C)NC(=O)[C@@H](NC(=O)CN)C(C)C)C(C)C)C(=O)N[C@@H](CC(C)C)C(=O)N[C@@H](CC(C)C)C(=O)N[C@@H](Cc1ccccc1)C(=O)N[C@@H](CCSC)C(=O)NCC(=O)N[C@@H](Cc1ccc(O)cc1)C(=O)N[C@@H](CO)C(=O)N[C@H](C(=O)O)[C@@H](C)O
Kd ([1]; read-out: Kd): 2200 nM

CSCC[C@@H]1NC(=O)[C@H](Cc2ccccc2)NC(=O)[C@H](CC(C)C)NC(=O)[C@H](CC(C)C)NC(=O)[C@H](CCC(=O)O)NC(=O)[C@H](CC(N)=O)NC(=O)[C@H](C(C)C)NC(=O)[C@H](Cc2cnc[nH]2)NC(=O)[C@H](CCCNC(=N)N)NC(=O)[C@H](CCCCN)NC(=O)[C@H](CCCCN)NC(=O)[C@H](CCCNC(=N)N)NC(=O)[C@H](CC(C)C)NC(=O)CNC1=O
Kd ([1]; read-out: Kd): 1890 nM

CC[C@H](C)[C@H](NC(=O)[C@H](CC(C)C)NC(=O)[C@@H](NC(=O)[C@H](CC(N)=O)NC(=O)[C@@H](NC(=O)[C@H](Cc1cnc[nH]1)NC(=O)[C@H](CCCNC(=N)N)NC(=O)[C@@H](NC(=O)[C@H](CCCCN)NC(=O)[C@H](CCCNC(=N)N)NC(=O)[C@H](CC(C)C)NC(=O)[C@@H](NC(=O)CN)C(C)C)[C@@H](C)O)C(C)C)[C@@H](C)CC)C(=O)N[C@@H](Cc1ccccc1)C(=O)N[C@@H](CCSC)C(=O)NCC(=O)N[C@@H](Cc1ccc(O)cc1)C(=O)N[C@@H](CO)C(=O)N[C@H](C(=O)O)[C@@H](C)O
Kd ([1]; read-out: Kd): 4100 nM

CC[C@H](C)[C@H](NC(=O)[C@H](CC(N)=O)NC(=O)[C@@H](NC(=O)[C@H](Cc1cnc[nH]1)NC(=O)[C@H](CCCNC(=N)N)NC(=O)[C@@H](NC(=O)[C@H](CCCCN)NC(=O)[C@H](CCCNC(=N)N)NC(=O)[C@H](CC(C)C)NC(=O)[C@@H](NC(=O)CN)C(C)C)[C@@H](C)O)C(C)C)C(=O)N[C@@H](CC(C)C)C(=O)N[C@@H](CC(C)C)C(=O)N[C@@H](CC(=O)O)C(=O)N[C@@H](CCSC)C(=O)NCC(=O)N[C@@H](Cc1ccc(O)cc1)C(=O)N[C@@H](CO)C(=O)N[C@H](C(=O)O)[C@@H](C)O
Kd [1]: Not Active

CC[C@H](C)[C@H](NC(=O)[C@H](CC(N)=O)NC(=O)[C@@H](NC(=O)[C@H](Cc1cnc[nH]1)NC(=O)[C@H](CCCNC(=N)N)NC(=O)[C@@H](NC(=O)[C@H](CCCCN)NC(=O)[C@H](CCCNC(=N)N)NC(=O)[C@H](CC(C)C)NC(=O)[C@@H](NC(=O)CN)C(C)C)[C@@H](C)O)C(C)C)C(=O)N[C@@H](C)C(=O)N[C@@H](CC(C)C)C(=O)N[C@@H](Cc1ccccc1)C(=O)N[C@@H](CCSC)C(=O)NCC(=O)N[C@@H](Cc1ccc(O)cc1)C(=O)N[C@@H](CO)C(=O)N[C@H](C(=O)O)[C@@H](C)O
Kd ([1]; read-out: Kd): 9800 nM

CC[C@H](C)[C@H](NC(=O)[C@H](CC(N)=O)NC(=O)[C@@H](NC(=O)[C@H](Cc1cnc[nH]1)NC(=O)[C@H](Cc1cnc[nH]1)NC(=O)[C@@H](NC(=O)[C@H](CCCCN)NC(=O)[C@H](CCCNC(=N)N)NC(=O)[C@H](CC(C)C)NC(=O)[C@@H](NC(=O)CN)C(C)C)[C@@H](C)O)C(C)C)C(=O)N[C@@H](CC(C)C)C(=O)NCC(=O)N[C@@H](Cc1ccccc1)C(=O)N[C@@H](Cc1c[nH]c2ccccc12)C(=O)NCC(=O)N[C@@H](Cc1ccc(O)cc1)C(=O)N[C@@H](CO)C(=O)N[C@H](C(=O)O)[C@@H](C)O (H-GVLRKTHHVNILGFWGYST-OH)
Kd [1]: Not Active

CC[C@H](C)[C@H](NC(=O)[C@H](C)NC(=O)[C@@H](NC(=O)[C@H](Cc1cnc[nH]1)NC(=O)[C@H](CCCNC(=N)N)NC(=O)[C@@H](NC(=O)[C@H](CCCCN)NC(=O)[C@H](CCCNC(=N)N)NC(=O)[C@H](CC(C)C)NC(=O)[C@@H](N)C(C)C)[C@@H](C)O)C(C)C)C(=O)N[C@@H](CC(C)C)C(=O)N[C@@H](CC(C)C)C(=O)N[C@@H](Cc1ccccc1)C(=O)N[C@@H](CCSC)C(=O)NCC(=O)O (H-VLRKTRHVAILLFMG-OH)
Kd [1]: Not Active

CC[C@H](C)[C@H](NC(=O)[C@H](CC(N)=O)NC(=O)[C@@H](NC(=O)[C@H](Cc1cnc[nH]1)NC(=O)[C@H](CCCNC(=N)N)NC(=O)[C@@H](NC(=O)[C@H](CCCCN)NC(=O)[C@H](CCCNC(=N)N)NC(=O)[C@H](CC(C)C)NC(=O)[C@@H](NC(=O)CN)C(C)C)[C@@H](C)O)C(C)C)C(=O)N[C@@H](CC(C)C)C(=O)N[C@@H](CC(C)C)C(=O)N[C@@H](Cc1ccccc1)C(=O)N[C@@H](CCSC)C(=O)NCC(=O)O (H-GVLRKTRHVNILLFMG-OH)
Kd ([1]; read-out: Kd): 1880 nM
